Data as given in patent US11932595B2, “VDR-silent vitamin D derivative as inhibitors of SREBP and pharmaceutical use thereof” (KYOTO UNIVERSITY, priority 2020, dated 2024).

Tests used:
SCAP protein = target: T1, SCAP protein (Mus musculus, UniProt Q6GQT6); assay: Short-term in vivo model: Western blot of SCAP protein in the liver; set-up: species or system mice; details: FIG. 5F
T1 construct: from tissue; host or cells: mouse liver
T1 sequence (Q6GQT6 1-1276): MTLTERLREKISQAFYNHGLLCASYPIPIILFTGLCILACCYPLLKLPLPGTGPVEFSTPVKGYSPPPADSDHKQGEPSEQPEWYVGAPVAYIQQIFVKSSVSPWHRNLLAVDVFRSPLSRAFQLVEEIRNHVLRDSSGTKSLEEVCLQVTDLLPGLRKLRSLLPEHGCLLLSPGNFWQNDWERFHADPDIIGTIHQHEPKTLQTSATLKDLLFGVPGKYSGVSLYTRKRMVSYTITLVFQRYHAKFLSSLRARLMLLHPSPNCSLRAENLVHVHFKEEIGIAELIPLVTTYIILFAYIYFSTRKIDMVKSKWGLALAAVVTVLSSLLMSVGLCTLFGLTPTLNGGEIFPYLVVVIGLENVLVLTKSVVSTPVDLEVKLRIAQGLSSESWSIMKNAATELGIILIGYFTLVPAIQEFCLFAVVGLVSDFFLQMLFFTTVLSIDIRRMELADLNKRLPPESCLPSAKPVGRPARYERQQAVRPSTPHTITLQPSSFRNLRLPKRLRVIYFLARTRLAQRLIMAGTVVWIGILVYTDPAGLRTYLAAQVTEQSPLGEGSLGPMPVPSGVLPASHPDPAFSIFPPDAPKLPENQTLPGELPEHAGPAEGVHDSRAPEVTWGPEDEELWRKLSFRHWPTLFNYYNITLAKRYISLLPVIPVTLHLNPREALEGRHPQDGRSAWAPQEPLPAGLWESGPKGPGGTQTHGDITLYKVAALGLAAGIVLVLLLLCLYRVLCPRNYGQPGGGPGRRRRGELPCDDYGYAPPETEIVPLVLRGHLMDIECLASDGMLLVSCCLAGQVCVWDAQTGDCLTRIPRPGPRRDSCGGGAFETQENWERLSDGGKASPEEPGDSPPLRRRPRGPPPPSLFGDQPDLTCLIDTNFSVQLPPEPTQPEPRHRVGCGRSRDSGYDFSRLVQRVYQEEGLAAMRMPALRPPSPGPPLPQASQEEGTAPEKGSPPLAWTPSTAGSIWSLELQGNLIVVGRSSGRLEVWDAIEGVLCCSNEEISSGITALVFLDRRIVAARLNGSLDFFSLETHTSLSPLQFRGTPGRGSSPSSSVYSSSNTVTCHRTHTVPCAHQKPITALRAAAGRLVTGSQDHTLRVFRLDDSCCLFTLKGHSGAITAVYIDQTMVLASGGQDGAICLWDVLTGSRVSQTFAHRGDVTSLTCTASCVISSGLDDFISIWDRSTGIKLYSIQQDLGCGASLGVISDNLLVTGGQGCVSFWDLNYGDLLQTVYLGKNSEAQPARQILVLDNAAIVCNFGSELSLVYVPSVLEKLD
Protocol: To quickly and simultaneously examine their SREBP inhibitory activity and VDR-derived calcemic activity in vivo, a short-term in vivo screening system of mice was established. With reference to the previous report (Horton, J. D. et al. Proc. Natl. Acad. Sci. U.S.A. 1998, 95, 5987-5992.), mice were fasted for 48 hours then refed a special diet (low fat, high carbohydrate diet, lacking in vitamin D) for 48 hours before sacrifice. 10 mg/kg compounds or vehicle control were administered intraperitoneally once every 24 hours during the fasting and refeeding. Western blot analysis of SCAP protein in the livers obtained from the indicated mice were obtained, (FIG. 5F).

SREBP = SREBP luciferase reporter assay (pSRE-Luc) in CHO-K1 cells; type: cell-based; details: CHO-K1 cells
Protocol: Cell Culture: CHO-K1 cells were maintained in medium A (1:1 mixture of Ham's F-12 medium and DMEM, supplemented with 100 units/mL penicillin, 100 μg/mL streptomycin sulfate, and 5% [v/v] fetal bovine serum) at 37° C. in a humidified 5% CO2 incubator.
CHO-K1 cells were seeded into 96-well plates at 8×10^3 cells per well in medium A and incubated for 24 h. For SREBP reporter assay, cells were co-transfected with an SRE-1-driven luciferase reporter plasmid (pSRE-Luc) and an actin promoter-driven β-galactosidase expression plasmid (pAc-13-gal) at a 20:1 ratio, using FuGENE HD Transfection Reagent (Promega) according to the manufacturer's protocol.
After 20 h, the medium was changed to medium B (1:1 mixture of Ham's F-12 medium and DMEM, supplemented with 100 units/mL penicillin, 100 μg/mL streptomycin sulfate, 5% [v/v] lipid-depleted serum, 50 μM compactin (Tokyo Chemical Industry), and 50 μM lithium mevalonate (Sigma-Aldrich) containing the specific test compounds. After 24 h incubation, the cells in each well were lysed with 100 μL of 1× Reporter Lysis Buffer (Promega), and 50 μL of aliquots were used to measure luciferase and 13-gal activities. Luciferase activity was measured using the Steady-Glo Luciferase Assay System (Promega), and 13-gal activity was measured using the 13-Galactosidase Enzyme Assay System (Promega). Luciferase activity was normalized to 13-gal activity.
[…] The same experiment using of 25(OH)D3 (1) was performed as control. Values are mean±SD.

SREBP-responsive genes = assay: Short-term in vivo model (fasting/refeeding): hepatic mRNA of SREBP-responsive genes by real-time PCR; set-up: species or system mice
Protocol: To quickly and simultaneously examine their SREBP inhibitory activity and VDR-derived calcemic activity in vivo, a short-term in vivo screening system of mice was established. With reference to the previous report (Horton, J. D. et al. Proc. Natl. Acad. Sci. U.S.A. 1998, 95, 5987-5992.), mice were fasted for 48 hours then refed a special diet (low fat, high carbohydrate diet, lacking in vitamin D) for 48 hours before sacrifice.
C57BL/6 and oh/oh mice were purchased from CLEA Japan and Charles River Japan, Inc., respectively. Animal experiments were carried out at the University of Tokyo and Charles River Laboratories. Low fat, high carbohydrate diet, lacking vitamin D was custom made by Research Diets, Inc. Compounds disclosed herein and 25(OH)D3 were dissolved in ethanol/Tween 20 (9:1) to obtain stock solution and then diluted 10-fold with PBS immediately before administration to mice.
10 mg/kg compounds or vehicle control were administered intraperitoneally once every 24 hours during the fasting and refeeding.
Relative mRNA levels of SREBP-responsive genes were determined by real-time PCR in the livers obtained from the mice with free access to a normal diet or fasted and refed a special diet (means SEM, n=3 per group), *p<0.05.
Expression levels of SREBP-responsive genes were determined by real-time PCR in the livers obtained from the mice treated with indicated compounds (10 mg/kg) according to the protocol illustrated in FIG. 5A. Data are expressed as relative expression to the mean value of vehicle-treated mouse liver (means±SEM, n=3 per group), *p<0.05 (FIG. 5C).
Relative mRNA levels of SREBP-responsive genes were determined by real-time PCR in the livers obtained from the indicated mice Data are means±SEM (fed mice, n=3; others, n=6), *p<0.05 (FIG. 5E).

C[C@H](CCC(F)(F)C(C)(C)O)[C@H]1CC[C@H]2/C(=C/Cn3nnnc3-c3ccccc3)CCC[C@]12C [Compound 50, (R)-3,3-Difluoro-2-methyl-6-{(1R,3aS,7aR,E)-7a-methyl-4-[2-(5-phenyl-1H-tetrazol-1-yl)ethylidene]octahydro-1H-inden-1-yl}heptan-2-ol]
increased hepatic expression of SCAP protein after fasting and refeeding (SCAP protein): canceled | inhibition of activation of the SREBP reporter gene, concentration dependence (SREBP; FIG. 6A): concentration-dependent manner comparable to 25(OH)D3 | hepatic expression of SREBP-response genes ACC1 and FASN versus vehicle (SREBP-responsive genes; 10 mg/kg intraperitoneally once every 24 hours, fasted 48 h/refed 48 h, n=3, FIG. 5C): significantly suppressed | elevated hepatic expression of the three SREBP-responsive genes ACC1, FASN and SCD1 (SREBP-responsive genes; 10 mg/kg intraperitoneally, fasting/refeeding, FIG. 5C): mitigated the elevated expression | elevated hepatic expression of the four SREBP-responsive genes, repeated examination (SREBP-responsive genes; 10 mg/kg, increased number of mice (n=6), FIG. 5E): significantly mitigated

C=C1CC[C@H](O)C/C1=C/C=C1\CCC[C@]2(C)[C@@H]([C@H](C)CCCC(C)(C)O)CC[C@@H]12 [25(OH)D3, 25-hydroxyvitamin D3, reference compound]
SREBP inhibitory activity (expression of SREBP-responsive luciferase reporter gene) (SREBP; 5 μM compound, lipid-free medium, 24 h, FIGS. 1 and 3): substantial inhibitory activity
